In patent US4385058A, “Pyrimidone derivatives” (Smith Kline & French Laboratories Limited, priority 1980, dated 1983):

System: histamine H2 -receptors
Assay: Inhibition of histamine-stimulated acid secretion in the Heidenhain pouch dog
Type: in vivo
Conditions: intravenous administration; dose levels adjusted to produce similar peak responses
Description: Heidenhain pouch dogs can be prepared and used as described in European Specification No. 15138.

Cc1ccc(Cc2cnc(NCCSCc3cc(CN(C)C)ccn3)[nH]c2=O)cn1 [Example 1, 2-[2-(4-dimethylaminomethyl-2-pyridylmethylthio)ethylamino]-5-(6-methyl-3-pyridylmethyl)-4-pyrimidone]
duration of activity versus cimetidine: longer duration of activity than cimetidine
